Our source for the IC50 values is patent US8735584B2 (Merck Patent GmbH, priority 2008, dated 2014).

The assay addresses T1, GST-Aurora A (Homo sapiens, UniProt O14965).
T1 construct: N-terminal GST fusion with full length Aurora A (1-403 amino acids); purchased Carna Biosciences 05-101
T1 sequence (O14965 1-403): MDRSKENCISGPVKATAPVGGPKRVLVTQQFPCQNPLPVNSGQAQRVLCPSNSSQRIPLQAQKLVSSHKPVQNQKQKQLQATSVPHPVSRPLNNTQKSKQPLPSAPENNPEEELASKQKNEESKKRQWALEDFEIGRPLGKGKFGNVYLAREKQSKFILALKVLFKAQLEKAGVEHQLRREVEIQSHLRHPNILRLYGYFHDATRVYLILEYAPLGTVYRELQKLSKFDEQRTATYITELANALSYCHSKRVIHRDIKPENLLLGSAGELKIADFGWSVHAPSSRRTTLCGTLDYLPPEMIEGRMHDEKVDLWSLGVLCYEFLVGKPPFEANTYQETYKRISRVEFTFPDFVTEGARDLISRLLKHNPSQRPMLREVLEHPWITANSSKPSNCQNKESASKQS
Briefly: Aurora A IC50, Caliper LC3000 mobility shift assay. To be noted: LC3000 method; 15 uM ATP (the KM value); read-out: Aurora Kinase A Activity (IC50). Format: biochemical. On the procedure: The Aurora assays described here are performed on two Caliper Life Sciences systems: the LC3000 and the Desktop Profiler. These provide data on enzyme activity via measurement of the relative amounts of phosphorylated or unphosphorylated fluorescently labelled substrate peptide at the end of an enzymatic reaction. These different states of peptide are resolved by applying a potential difference across the sample. The presence of the charged phosphate group on the product (as opposed to the substrate) causes a different peptide mobility between the two peptides. This is visualized by excitation of the fluorescent label on the substrate and product peptides and represented as peaks within the analysis software.
In order to measure inhibitor activity of Aurora A inhibitors in the Caliper Life Sciences LC3000, a TTP Mosquito liquid handling instrument is used to place 0.25 ul of the appropriate concentration of inhibitor in 100% DMSO (for a dose response curve calculation) into each well of a 384-well plate. To this reaction components are added to a final volume of 25 ul: • 0.067 ng/ul GST-Aurora A (Carna Biosciences 05-101. N-terminal GST fusion with full length Aurora A (1-403 amino acids), accession number NP 940835.1). • 15 uM ATP (Fluke, 02055) • 1 mM DTT (Sigma, D0632) • 1 mM MgCl2 (Sigma, M1028) • 1 uM substrate peptide (sequence FITC-LRRASLG-(CONH2), synthesized by Tufts Peptide Synthesis service. • 100 mM HEPES pH 7.5 (Calbiochem, 391338) • 0.015% Brij-35 (Sigma, B4184)
The reaction is incubated for 90 min at 25 C, and then stopped by the addition of 70 ul of Stop buffer (100 mM HEPES pH 7.5, 0.015% Brij-35, 10 mM EDTA (Sigma, E7889)).
The plate is read on a Caliper LC3000 in an Off-Chip mobility shift assay format, using the following parameters for a 12-sipper chip: screening pressure—1.8 psi, upstream voltage—2700, downstream voltage—1000. These conditions cause unphosphorylated substrate and phosphorylated product peptide to resolve as separate peaks allowing direct measurement of percentage of conversion of substrate to product. The percent conversion can be plotted against concentration of inhibitor to produce a sigmoidal dose response curve, from which an 1050 can be calculated using XLFit for Microsoft Excel.
In the desired wells of a 384-well plate, Aurora A (0.067 ng/ul) was incubated with 15 uM ATP (the KM value), 1 mM DTT, 1 mM MgCl2, and 1 uM peptide substrate (sequence FITC-LRRASLG-(CONH2), FITC=fluorescein isothiocyanate) in 100 mM HEPES pH 7.5 and 0.015% Brij-35 buffer. The reaction was incubated for 90 min at 25 C, and then stopped by the addition of 45 ul of Stop buffer (100 mM HEPES ph 7.5, 0.015% Brij-35, 10 mM EDTA).
The plate was read in a Caliper LC 3000 in an Off-Chip mobility shift assay format, using the following parameters: screening pressure—1.8 psi, upstream voltage—2700, downstream voltage—1000. These conditions cause unphosphorylated substrate peptide to resolve as a peak before that of the phosphorylated peptide product.
In the following table “+” means >100 nM, “++” means 11-100 nM, and “+++” means <11 nM.

pIC50: −log10 of the molar value.

What is called pIC50 is the negative decadic logarithm of the IC50, by convention in mol/L. Turning to `CC(=O)Nc1ccc(C#Cc2ccnc3[nH]c(=O)c4ccccc4c23)cc1` [Compound 265], the pIC50 is below 7.00.
For `COC(=O)c1ccc2c(c1)c(=O)[nH]c1nccc(Nc3ccc(NC(=O)c4ccccc4)cc3)c12` [Compound 267, Methyl 1-(4-benzamidophenylamino)-6-oxo-5,6-dihydrobenzo[c][1,8]naphthyridine-8-carboxylate], the pIC50 is above 7.96.
As for `O=C(O)c1ccc2c(c1)c(=O)[nH]c1nccc(Nc3ccc(NC(=O)c4ccccc4)cc3)c12` [Compound 268, 1-(4-Benzamidophenylamino)-6-oxo-5,6-dihydrobenzo[c][1,8]naphthyridine-8-carboxylic acid], the pIC50 is above 7.96.
Turning to `CN1CCN(C(=O)c2ccc3c(c2)c(=O)[nH]c2nccc(Nc4ccc(NC(=O)c5ccccc5)cc4)c23)CC1` [Compound 269, N-(4-(8-(4-Methylpiperazine-1-carbonyl)-6-oxo-5,6-dihydrobenzo[c][1,8]naphthyridin-1-ylamino)phenyl)benzamide], the pIC50 is 7.00 to 7.96.
Turning to `CN(C)CCNC(=O)c1ccc2c(c1)c(=O)[nH]c1nccc(Nc3ccc(NC(=O)c4ccccc4)cc3)c12` [Compound 270, 1-(4-Benzamidophenylamino)-N-(2-(dimethylamino)ethyl)-6-oxo-5,6-dihydrobenzo[c][1,8]naphthyridine-8-carboxamide], the negative-log IC50 (pIC50) is 7.00 to 7.96.
Regarding `CN1CCN(CCNC(=O)c2ccc3c(c2)c(=O)[nH]c2nccc(Nc4ccc(NC(=O)c5ccccc5)cc4)c23)CC1` [Compound 271, 1-(4-Benzamidophenylamino)-N-(2-(4-methylpiperazin-1-yl)ethyl)-6-oxo-5,6-dihydrobenzo[c][1,8]naphthyridine-8-carboxamide], the pIC50 is 7.00 to 7.96.
Take `O=C(NCC(O)CO)c1ccc2c(c1)c(=O)[nH]c1nccc(Nc3ccc(NC(=O)c4ccccc4)cc3)c12` (stereo not drawn) [Compound 272, 1-(4-Benzamidophenylamino)-N-(2,3-dihydroxypropyl)-6-oxo-5,6-dihydrobenzo[c][1,8]naphthyridine-8-carboxamide]: the negative-log IC50 (pIC50) is above 7.96.
The figure for `CCN(CCO)Cc1ccc2c(c1)c(=O)[nH]c1nccc(Nc3ccc(NC(=O)c4ccccc4)cc3)c12` [Compound 274, N-(4-(8-((Ethyl(2-hydroxyethyl)amino)methyl)-6-oxo-5,6-dihydrobenzo[c][1,8]naphthyridin-1-ylamino)phenyl)benzamide] is 7.00 to 7.96; for `O=C(Nc1ccc(Nc2ccnc3[nH]c(=O)c4cc(Cl)ccc4c23)cc1)c1ccccc1` [Compound 275, N-(4-(8-Chloro-6-oxo-5,6-dihydrobenzo[c][1,8]naphthyridin-1-ylamino)phenyl)benzamide] it is 7.00 to 7.96.
The figure for `CN1CCN(c2ccc3c(c2)c(=O)[nH]c2nccc(Nc4ccc(NC(=O)c5ccccc5)cc4)c23)CC1` [Compound 276, N-(4-(8-(4-Methylpiperazin-1-yl)-6-oxo-5,6-dihydrobenzo[c][1,8]naphthyridin-1-ylamino)phenyl)benzamide] is 7.00 to 7.96.
`O=C(Nc1ccc(Nc2ccnc3[nH]c(=O)c4ccc(CO)cc4c23)cc1)c1ccccc1` [Compound 279, N-(4-(9-(Hydroxymethyl)-6-oxo-5,6-dihydrobenzo[c][1,8]naphthyridin-1-ylamino)phenyl)benzamide]: the pIC50 was above 7.96.
Regarding `NCc1ccc2c(=O)[nH]c3nccc(Nc4ccc(NC(=O)c5ccccc5)cc4)c3c2c1` [Compound 280, N-(4-(9-(Aminomethyl)-6-oxo-5,6-dihydrobenzo[c][1,8]naphthyridin-1-ylamino)phenyl)benzamide], the negative logarithm of the IC50 (pIC50) was above 7.96.
The same measure for `O=C(O)c1ccc2c(=O)[nH]c3nccc(Nc4ccc(NC(=O)c5ccccc5)cc4)c3c2c1` [Compound 281, 1-(4-Benzamidophenylamino)-6-oxo-5,6-dihydrobenzo[c][1,8]naphthyridine-9-carboxylic acid]: above 7.96.
As to `NC(=O)c1ccc2c(=O)[nH]c3nccc(Nc4ccc(NC(=O)c5ccccc5)cc4)c3c2c1` [Compound 282, 1-(4-benzamidophenylamino)-6-oxo-5,6-dihydrobenzo[c][1,8]naphthyridine-9-carboxamide], the pIC50 was above 7.96.
With `CN(C)C(=O)c1ccc2c(=O)[nH]c3nccc(Nc4ccc(NC(=O)c5ccccc5)cc4)c3c2c1` [Compound 283, 1-(4-Benzamidophenylamino)-N,N-dimethyl-6-oxo-5,6-dihydrobenzo[c][1,8]naphthyridine-9-carboxamide], the pIC50 is 7.00 to 7.96.
For the molecule `NCCNC(=O)c1ccc2c(=O)[nH]c3nccc(Nc4ccc(NC(=O)c5ccccc5)cc4)c3c2c1` [Compound 284, N-(2-Aminoethyl)-1-(4-benzamidophenylamino)-6-oxo-5,6-dihydrobenzo[c][1,8]naphthyridine-9-carboxamide], the pIC50 was above 7.96.
The same measure for `CN(C)CCNC(=O)c1ccc2c(=O)[nH]c3nccc(Nc4ccc(NC(=O)c5ccccc5)cc4)c3c2c1` [Compound 285, 1-(4-benzamidophenylamino)-N-(2-(dimethylamino)ethyl)-6-oxo-5,6-dihydrobenzo[c][1,8]naphthyridine-9-carboxamide]: above 7.96.
With `CN1CCN(CCNC(=O)c2ccc3c(=O)[nH]c4nccc(Nc5ccc(NC(=O)c6ccccc6)cc5)c4c3c2)CC1` [Compound 286, 1-(4-benzamidophenylamino)-N-(2-(4-methylpiperazin-1-yl)ethyl)-6-oxo-5,6-dihydrobenzo[c][1,8]naphthyridine-9-carboxamide], the pIC50 was 7.00 to 7.96.
On to `CC(C(=O)Nc1ccccc1)N1CCC(Nc2ccnc3[nH]c(=O)c4ccccc4c23)CC1` (stereo not drawn) [Compound 287, 2-(4-(6-oxo-5,6-dihydrobenzo[c][1,8]naphthyridin-1-ylamino)piperidin-1-yl)-N-phenylpropanamide], for which the pIC50 was below 7.00.
The same measure for `CC(NC(=O)CN1CCC(Nc2ccnc3[nH]c(=O)c4ccccc4c23)CC1)c1ccccc1` (stereo not drawn) [Compound 288, 2-(4-(6-Oxo-5,6-dihydrobenzo[c][1,8]naphthyridin-1-ylamino)piperidin-1-yl)-N-(1-phenylethyl)acetamide]: below 7.00; for `O=C(NCCO)c1ccc2c(=O)[nH]c3nccc(Nc4ccc(NC(=O)c5ccccc5)cc4)c3c2c1` [Compound 289, 1-(4-Benzamidophenylamino)-N-(2-hydroxyethyl)-6-oxo-5,6-dihydrobenzo[c][1,8]naphthyridine-9-carboxamide]: 7.00 to 7.96; for `CN1CCN(C(=O)c2ccc3c(=O)[nH]c4nccc(Nc5ccc(NC(=O)c6ccccc6)cc5)c4c3c2)CC1` [Compound 290, N-(4-(9-(4-Methylpiperazine-1-carbonyl)-6-oxo-5,6-dihydrobenzo[c][1,8]naphthyridin-1-ylamino)phenyl)benzamide]: 7.00 to 7.96.
Consider `CN1CCN(Cc2ccc3c(=O)[nH]c4nccc(Nc5ccc(NC(=O)c6ccccc6)cc5)c4c3c2)CC1` [Compound 291, N-(4-(9-((4-methylpiperazin-1-yl)methyl)-6-oxo-5,6-dihydrobenzo[c][1,8]naphthyridin-1-ylamino)phenyl)benzamide], for which the pIC50 was above 7.96.
With `CN(C)CCN(C)Cc1ccc2c(=O)[nH]c3nccc(Nc4ccc(NC(=O)c5ccccc5)cc4)c3c2c1` [Compound 292, N-(4-(9-(((2-(Dimethylamino)ethyl)(methyl)amino)methyl)-6-oxo-5,6-dihydrobenzo[c][1,8]naphthyridin-1-ylamino)phenyl)benzamide], the pIC50 was 7.00 to 7.96.
